# According to PubChem BioAssay AID1259408 (Genetic Toxicology Data Bank (GENE-TOX), 2018):
# Activity calls are given as the source filed them. The rule behind the calls is not given here.
# Tested on: GENE-TOX genotoxicity assays, various organisms and cells
# Assay: GENE-TOX mutagenicity studies
# Conditions: for call: Assay Type: In vivo carcinogenicity studies
# [1] = Species/Cell Type: Salmonella typhimurium (one or more of the five standard strains: TA98, TA100, TA1535, TA1537, and TA1538), Assay Type: Histidine reverse gene mutation, Ames assay, Assay Code: SAL+, Evaluation Type: Evaluation A (Pre-1980)
# [2] = Species/Cell Type: Escherichia coli polA (W3119 vs P3478), Assay Type: Rec-assay, DNA effects (bacterial DNA repair), Assay Code: RE1T, Evaluation Type: Evaluation A (Pre-1980)
# [3] = Species/Cell Type: Human, Assay Type: Sister-chromatid exchange (SCE) in vitro, Assay Code: SC1+, Evaluation Type: Evaluation B (Post-1980)
# [4] = Species/Cell Type: Human lymphocytes, Assay Type: Sister-chromatid exchange (SCE) in vivo, Assay Code: SCY+, Evaluation Type: Evaluation B (Post-1980)
# [5] = Species/Cell Type: Salmonella typhimurium (one or more of the five standard strains: TA98, TA100, TA1535, TA1537, and TA1538), Assay Type: Histidine reverse gene mutation, Ames assay, Assay Code: SALT, Evaluation Type: Evaluation A (Pre-1980)
# [6] = Species/Cell Type: Nonhuman, Assay Code: CCG+L, Evaluation Type: Evaluation A (Pre-1980)
# [7] = Species/Cell Type: Mammalian polychromatic erythrocytes, Assay Type: Micronucleus test, chromosome aberrations, Assay Code: MNT+, Evaluation Type: Evaluation B (Post-1980)
# [8] = Species/Cell Type: Drosophila melanogaster, Assay Type: Sex-linked recessive lethal gene mutation, Assay Code: SRLT, Evaluation Type: Evaluation A (Pre-1980)
# [9] = Species/Cell Type: Human lymphocytes, Assay Type: Sister-chromatid exchange (SCE) in vitro, Assay Code: SCL+, Evaluation Type: Evaluation B (Post-1980)
# [10] = Species/Cell Type: Nonhuman, Assay Type: Sister-chromatid exchange (SCE) in vitro, Assay Code: SC2+D, Dose Response: With dose response, Evaluation Type: Evaluation B (Post-1980)
# [11] = Species/Cell Type: Mammalian polychromatic erythrocytes, Assay Type: Micronucleus test, chromosome aberrations, Assay Code: MNTT, Evaluation Type: Evaluation B (Post-1980)
# [12] = Species/Cell Type: Nonhuman, Assay Type: Sister-chromatid exchange (SCE) in vitro, Assay Code: SC2+, Evaluation Type: Evaluation B (Post-1980)
# [13] = Species/Cell Type: Vicia faba, Assay Type: Chromosome aberrations, Assay Code: VIC+, Evaluation Type: Evaluation A (Pre-1980)
compound,measurement,setting,value
Clc1cc2oc3cc(Cl)c(Cl)cc3c2cc1Cl,mutagenic call,"Species/Cell Type: Saccharomyces cerevisiae, Assay Type: Forward gene mutation, Assay Code: YEF-, Evaluation Type: Evaluation A (Pre-1980)",inactive; negative
same,mutagenic call,"Species/Cell Type: Saccharomyces cerevisiae, Assay Type: Mitotic recombination or gene conversion, Assay Code: YEC-, Evaluation Type: Evaluation A (Pre-1980)",inactive; negative
same,mutagenic call,"Species/Cell Type: Saccharomyces cerevisiae, Assay Type: Mitotic recombination or gene conversion, Assay Code: YEH-, Evaluation Type: Evaluation A (Pre-1980)",inactive; negative
O=[N+]([O-])c1ccc(N2CC2)c2c1no[n+]2[O-],mutagenic call,[1],active; positive
CCc1cccc(O)c1,mutagenic call,"Species/Cell Type: Human lymphocytes, Assay Type: Sister-chromatid exchange (SCE) in vitro, Assay Code: SCLT, Evaluation Type: Evaluation B (Post-1980)",no conclusion
same,mutagenic call,"Species/Cell Type: Human, Assay Type: Sister-chromatid exchange (SCE) in vitro, Assay Code: SC1T, Evaluation Type: Evaluation B (Post-1980)",no conclusion
O=C(OC[C@@H]1O[C@H](OC(=O)c2cc(O)c(O)c(OC(=O)c3cc(O)c(O)c(O)c3)c2)[C@@H](OC(=O)c2cc(O)c(O)c(OC(=O)c3cc(O)c(O)c(O)c3)c2)[C@H](OC(=O)c2cc(O)c(O)c(OC(=O)c3cc(O)c(O)c(O)c3)c2)[C@H]1OC(=O)c1cc(O)c(O)c(OC(=O)c2cc(O)c(O)c(O)c2)c1)c1cc(O)c(O)c(OC(=O)c2cc(O)c(O)c(O)c2)c1,mutagenic call,[2],no conclusion
same,mutagenic call,"Species/Cell Type: Nonhuman, Assay Type: Sister-chromatid exchange (SCE) in vivo, Assay Code: SC3+D, Dose Response: With dose response, Evaluation Type: Evaluation B (Post-1980)",active; positive
Cc1c2occc2cc2c1oc(=O)c1cnccc12,mutagenic call,[3],active; positive
Cc1cc(NC(=O)C2=C(O)c3ccccc3S(=O)(=O)N2C)no1,mutagenic call,[4],active; positive
C/C=C/C=C/C#C/C=C/C=C/CCCCCOC(C)=O,mutagenic call,"Species/Cell Type: Nonhuman, Assay Type: Sister-chromatid exchange (SCE) in vitro, Assay Code: SC2T, Evaluation Type: Evaluation B (Post-1980)",no conclusion
Cc1cc2c(ccc3ccccc32)c2c1C(=O)CC2,mutagenic call,[5],no conclusion
O=[N+]([O-])c1ccc(-c2cscn2)o1,mutagenic call,"Species/Cell Type: Bacillus subtilis (H17 vs M45), Assay Type: Rec-assay, spot test, DNA effects (bacterial DNA repair), Assay Code: REW+, Evaluation Type: Evaluation A (Pre-1980)",active; positive
same,call,[6],active; positive
same,mutagenic call,[1],active; positive
same,mutagenic call,"Species/Cell Type: Syrian hamster embryo (SHE) cells, Assay Type: Cell transformation, clonal assay, Assay Code: CTC-, Evaluation Type: Evaluation A (Pre-1980)",inactive; negative
C=C(C)[C@@H]1CCC(C)=C[C@H]1c1c(O)cc(CCCCC)cc1O,mutagenic call,"Species/Cell Type: Fischer rat embryo (RLV/1706) cells, Assay Type: Cell transformation, viral enhanced, Assay Code: CTR-, Evaluation Type: Evaluation A (Pre-1980)",inactive; negative
same,mutagenic call,[4],active; positive
same,mutagenic call,[7],active; positive
same,mutagenic call,"Species/Cell Type: Mouse, Sex: Male, Assay Type: Sperm morphology, Assay Code: SPI-, Evaluation Type: Evaluation A (Pre-1980)",inactive; negative
CCCCc1nc(Cl)c(CO)n1Cc1ccc(-c2ccccc2-c2nnn[nH]2)cc1,mutagenic call,[8],no conclusion
same,mutagenic call,"Species/Cell Type: Drosophila melanogaster, Sex: Male, Assay Type: Heritable translocation test, chromosome aberrations, Assay Code: DHTT, Evaluation Type: Evaluation A (Pre-1980)",no conclusion
OC1CCCCC1,mutagenic call,"Species/Cell Type: Allium cepa, Assay Type: Chromosome aberrations, Assay Code: ALC-, Evaluation Type: Evaluation A (Pre-1980)",inactive; negative
C[C@@]1(CO)[C@H](O)CC[C@@]2(C)[C@H]1CC[C@H]1C[C@@H]3C[C@@]12CC[C@]3(O)CO,mutagenic call,[9],active; positive
same,mutagenic call,[3],active; positive
same,mutagenic call,[10],active; positive
S=C1NCCCN1,mutagenic call,[11],no conclusion
O=[N+]([O-])c1ccc2[nH]ccc2c1,mutagenic call,[1],active; positive
CCOP(=S)(OCC)SCSC(C)(C)C,mutagenic call,"Species/Cell Type: Hordeum vulgare (barley), Assay Type: Chromosome aberrations, Assay Code: HOC+D, Dose Response: With dose response, Evaluation Type: Evaluation A (Pre-1980)",active; positive
O=C(N[C@@H](CO)[C@@H](O)c1ccc([N+](=O)[O-])cc1)C(Cl)Cl,mutagenic call,[1],active; positive
NOS(=O)(=O)O,mutagenic call,"Species/Cell Type: Escherichia coli polA (W3119 vs P3478), Assay Type: Rec-assay, DNA effects (bacterial DNA repair), Assay Code: RE1+, Evaluation Type: Evaluation A (Pre-1980)",active; positive
CCCN(CCC)c1c([N+](=O)[O-])cc(C(F)(F)F)cc1[N+](=O)[O-],mutagenic call,"Species/Cell Type: Bacillus subtilis (H17 vs M45), Assay Type: Rec-assay, spot test, DNA effects (bacterial DNA repair), Assay Code: REWT, Evaluation Type: Evaluation A (Pre-1980)",no conclusion
same,mutagenic call,"Species/Cell Type: Drosophila melanogaster, Assay Type: Sex-linked recessive lethal gene mutation, Assay Code: SRL-, Evaluation Type: Evaluation A (Pre-1980)",inactive; negative
same,mutagenic call,"Species/Cell Type: Escherichia coli WP2 UVRA, Assay Type: Tryptophan reverse gene mutation, Assay Code: WPU-*, Activation: With metabolic activation, Evaluation Type: Evaluation A (Pre-1980)",inactive; negative
same,mutagenic call,[2],no conclusion
same,mutagenic call,"Species/Cell Type: Human diploid fibroblasts, Assay Type: Unscheduled DNA synthesis (UDS) in vitro, DNA effects, Assay Code: UDH-, Evaluation Type: Evaluation A (Pre-1980)",inactive; negative
same,mutagenic call,"Species/Cell Type: Neurospora crassa, Assay Type: Aneuploidy, chromosome aberrations, Assay Code: NEN+, Evaluation Type: Evaluation A (Pre-1980)",active; positive
same,call,[6],active; positive
same,mutagenic call,[12],active; positive
same,mutagenic call,"Species/Cell Type: Saccharomyces cerevisiae, Assay Type: Mitotic recombination or gene conversion, Assay Code: YEH+/-*, Activation: With metabolic activation, Evaluation Type: Evaluation A (Pre-1980)","inactive; positive without activation, negative with activation"
same,mutagenic call,"Species/Cell Type: Salmonella typhimurium (one or more of the five standard strains: TA98, TA100, TA1535, TA1537, and TA1538), Assay Type: Histidine reverse gene mutation, Ames assay, Assay Code: SAL-, Evaluation Type: Evaluation A (Pre-1980)",inactive; negative
same,mutagenic call,[13],active; positive
O=C(CCl)NCO,mutagenic call,[7],active; positive
CCC[N+](=O)[O-],mutagenic call,[11],no conclusion
C#Cc1cn([C@H]2C[C@H](O)[C@@H](CO)O2)c(=O)[nH]c1=O,mutagenic call,[9],active; positive
same,mutagenic call,[3],active; positive
COc1ccc(C(=O)/C(Br)=C\C(=O)O)cc1,mutagenic call,"Species/Cell Type: Mammalian polychromatic erythrocytes, Assay Type: Micronucleus test, chromosome aberrations, Assay Code: MNT+, Evaluation Type: Evaluation A (Pre-1980)",active; positive
same,call,[6],active; positive
N/C(=N\O)c1ccc([N+](=O)[O-])o1,mutagenic call,[10],active; positive
same,mutagenic call,[1],active; positive
O[C@@H]1c2cccc3ccc4cc5ccccc5c(c4c23)[C@@H]1O,mutagenic call,"Species/Cell Type: Chinese hamster lung (V79) cells, Assay Type: Forward gene mutation at the HPRT or ouabain locus, Assay Code: V79-, Evaluation Type: Evaluation A (Pre-1980)",inactive; negative
same,mutagenic call,[5],no conclusion
Cc1ccc2ccc3c4ccccc4c(C)c4ccc1c2c43,mutagenic call,"Species/Cell Type: Drosophila melanogaster, Assay Type: Sex-linked recessive lethal gene mutation, Assay Code: SRL+, Evaluation Type: Evaluation A (Pre-1980)",active; positive
O[C@H]1C=Cc2cc3c(ccc4ccccc43)cc2[C@@H]1O,mutagenic call,"Species/Cell Type: Chinese hamster lung (V79) cells, Assay Type: Forward gene mutation at the HPRT or ouabain locus, Assay Code: V79-*, Activation: With metabolic activation, Evaluation Type: Evaluation A (Pre-1980)",inactive; negative
same,call,"Species/Cell Type: Nonhuman, Assay Code: CCGT, Evaluation Type: Evaluation A (Pre-1980)",no conclusion
same,mutagenic call,[10],active; positive
same,mutagenic call,[5],no conclusion
CC(N)=S=O,mutagenic call,"Species/Cell Type: Mammalian polychromatic erythrocytes, Assay Type: Micronucleus test, chromosome aberrations, Assay Code: MNT+U, Dose Response: Unconfirmed positive response, Evaluation Type: Evaluation B (Post-1980)",active; positive
Nc1ncnc2n[nH]nc12,mutagenic call,[13],active; positive
c1ccc2cc3c4c(ccc3cc2c1)CCC1OC41 (stereo unspecified),mutagenic call,"Species/Cell Type: Chinese hamster lung (V79) cells, Assay Type: Forward gene mutation at the HPRT or ouabain locus, Assay Code: V79+, Evaluation Type: Evaluation A (Pre-1980)",active; positive
N.N.[Cl-].[Cl-].[Cl-].[Cl-].[Pt+4],mutagenic call,[12],active; positive
Cc1ccc2cc3c(cc(O)c4ccccc43)c3c2c1CC3,mutagenic call,"Species/Cell Type: Mouse prostate cells, Assay Type: Cell transformation, Assay Code: CTM+, Evaluation Type: Evaluation A (Pre-1980)",active; positive
F[Si-2](F)(F)(F)(F)F,mutagenic call,[11],no conclusion
CCN(CC)CCn1nc2c3c(c(CO)ccc31)Sc1ccccc1-2,mutagenic call,[8],no conclusion
same,mutagenic call,"Species/Cell Type: Mouse lymphoma (L5178Y) cells, Assay Type: Forward gene mutation at the thymidine kinase (TK) locus, chromosome aberrations, Assay Code: L51+, Evaluation Type: Evaluation A (Pre-1980)",active; positive
same,mutagenic call,"Species/Cell Type: Neurospora crassa, Assay Type: Forward gene mutation, Assay Code: NEF+, Evaluation Type: Evaluation A (Pre-1980)",active; positive
